Results as given in US12077503B2, “Substituted cyclic amides and their use as herbicides” (FMC CORPORATION, priority 2015, dated 2024).

Assays:
Type in all cases: in vivo
[1] = tested on: ivy-leaved morning glory (Ipomoea hederacea); assay: Test G Post-Emergence Protocol; conditions: Ipomoea, post-emergence, 312 h; for pest or weed control at 15.625 g/ha: 15.625 g ai/ha, evaluated after 13 days (100=total damage to plant; 0=no damage to plant), read-out: Morningglory, Ivy-leaved damage rating; for pest or weed control at 62.5 g/ha: 62.5 g ai/ha, read-out: Morningglory, Ivy-leaved damage rating (100=total damage to plant; 0=no damage to plant); for pest or weed control at 62.5 g/ha / pest or weed control at 250 g/ha: evaluated after 13 days; for pest or weed control at 250 g/ha: 250 g ai/ha, read-out: damage to plant, Morningglory, Ivy-leaved (100=total damage to plant; 0=no damage to plant)
In short: (§1)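 Pot-grown seedlings, 8 days old, raised in a glasshouse at 24/16 °C day/night with 14 h light and 65% humidity, were sprayed post-emergence with test compound in acetone/water (50:50) plus 0.5% Tween 20 at 15.625, 62.5 or 250 g/ha. Damage was scored visually 13 days later on a 0–100 scale (100 = total damage).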

[2] = tested on: redroot pigweed (Amaranthus retroflexus); assay: Test G Post-Emergence Protocol; conditions: Amaranthus retroflexus, post-emergence, 312 h; for pest or weed control at 15.625 g/ha: 15.625 g ai/ha, evaluated after 13 days (100=total damage to plant; 0=no damage to plant), read-out: Pigweed, Redroot damage rating; for pest or weed control at 62.5 g/ha: 62.5 g ai/ha, read-out: Pigweed, Redroot damage rating (100=total damage to plant; 0=no damage to plant); for pest or weed control at 62.5 g/ha / pest or weed control at 250 g/ha: evaluated after 13 days; for pest or weed control at 250 g/ha: 250 g ai/ha, read-out: damage to plant, Pigweed, Redroot (100=total damage to plant; 0=no damage to plant)
In short: as §1

[3] = tested on: velvetleaf (Abutilon theophrasti); assay: Test G Post-Emergence Protocol; conditions: Abutilon theophrasti, post-emergence, 312 h; for pest or weed control at 15.625 g/ha: 15.625 g ai/ha, evaluated after 13 days (100=total damage to plant; 0=no damage to plant), read-out: Velvetleaf damage rating; for pest or weed control at 62.5 g/ha: 62.5 g ai/ha, read-out: Velvetleaf damage rating (100=total damage to plant; 0=no damage to plant); for pest or weed control at 62.5 g/ha / pest or weed control at 250 g/ha: evaluated after 13 days; for pest or weed control at 250 g/ha: 250 g ai/ha, read-out: damage to plant, Velvetleaf (100=total damage to plant; 0=no damage to plant)
In short: as §1

[4] = tested on: giant foxtail (Setaria faberi); assay: Test G Post-Emergence Protocol; conditions: Setaria faberi, post-emergence, 312 h; for pest or weed control at 15.625 g/ha: 15.625 g ai/ha, evaluated after 13 days (100=total damage to plant; 0=no damage to plant), read-out: Foxtail, Giant damage rating; for pest or weed control at 62.5 g/ha: 62.5 g ai/ha, read-out: Foxtail, Giant damage rating (100=total damage to plant; 0=no damage to plant); for pest or weed control at 62.5 g/ha / pest or weed control at 250 g/ha: evaluated after 13 days; for pest or weed control at 250 g/ha: 250 g ai/ha, read-out: damage to plant, Foxtail, Giant (100=total damage to plant; 0=no damage to plant)
In short: as §1

[5] = tested on: barnyardgrass (Echinochloa crus-galli); assay: Test G Post-Emergence Protocol; conditions: Echinochloa crus-galli, post-emergence, 312 h; for pest or weed control at 15.625 g/ha: 15.625 g ai/ha, evaluated after 13 days (100=total damage to plant; 0=no damage to plant), read-out: Barnyardgrass damage rating; for pest or weed control at 62.5 g/ha: 62.5 g ai/ha, read-out: Barnyardgrass damage rating (100=total damage to plant; 0=no damage to plant); for pest or weed control at 62.5 g/ha / pest or weed control at 250 g/ha: evaluated after 13 days; for pest or weed control at 250 g/ha: 250 g ai/ha, read-out: damage to plant, Barnyardgrass (100=total damage to plant; 0=no damage to plant)
In short: as §1

corn (Zea mays) [6] = assay: Test G Post-Emergence Protocol; conditions: Zea mays, post-emergence, 312 h; for plant injury at 15.625 g/ha: 15.625 g ai/ha, evaluated after 13 days (100=total damage to plant; 0=no damage to plant), read-out: Corn damage rating; for plant injury at 62.5 g/ha: 62.5 g ai/ha, read-out: Corn damage rating (100=total damage to plant; 0=no damage to plant); for plant injury at 62.5 g/ha / plant injury at 250 g/ha: evaluated after 13 days; for plant injury at 250 g/ha: 250 g ai/ha, read-out: damage to plant, Corn (100=total damage to plant; 0=no damage to plant)
In short: as §1

[7] = tested on: ivy-leaved morning glory (Ipomoea hederacea); assay: Test G Pre-Emergence Protocol; conditions: Ipomoea, pre-emergence, 312 h, evaluated after 13 days; for pest or weed control at 15.625 g/ha: 15.625 g ai/ha, read-out: Morning-glory, Ivy-leaved damage rating (100=total damage to plant; 0=no damage to plant); for pest or weed control at 62.5 g/ha: 62.5 g ai/ha, 100=total damage to plant, 0=no damage to plant, read-out: plant damage rating, Morningglory, Ivy-leaved; for pest or weed control at 250 g/ha: 250 g ai/ha, read-out: Morningglory, Ivy-leaved damage rating (100=total damage to plant; 0=no damage to plant)
In short: (§2)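 Seeds were sown in standard soil and kept one day in a glasshouse (24/16° C day/night, 14 h light, 65% humidity), then sprayed with compound in acetone/water (50:50) containing 0.5% Tween 20 at 15.625, 62.5 or 250 g/ha. Damage was scored after 13 days (0 = none, 100 = total).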

[8] = tested on: redroot pigweed (Amaranthus retroflexus); assay: Test G Pre-Emergence Protocol; conditions: Amaranthus retroflexus, pre-emergence, 312 h, evaluated after 13 days; for pest or weed control at 15.625 g/ha: 15.625 g ai/ha; for pest or weed control at 15.625 g/ha / pest or weed control at 250 g/ha: read-out: Pigweed, Redroot damage rating (100=total damage to plant; 0=no damage to plant); for pest or weed control at 62.5 g/ha: 62.5 g ai/ha, 100=total damage to plant, 0=no damage to plant, read-out: plant damage rating, Pigweed, Redroot; for pest or weed control at 250 g/ha: 250 g ai/ha
In short: as §2

[9] = tested on: velvetleaf (Abutilon theophrasti); assay: Test G Pre-Emergence Protocol; conditions: Abutilon theophrasti, pre-emergence, 312 h, evaluated after 13 days; for pest or weed control at 15.625 g/ha: 15.625 g ai/ha; for pest or weed control at 15.625 g/ha / pest or weed control at 250 g/ha: read-out: Velvetleaf damage rating (100=total damage to plant; 0=no damage to plant); for pest or weed control at 62.5 g/ha: 62.5 g ai/ha, 100=total damage to plant, 0=no damage to plant, read-out: plant damage rating, Velvetleaf; for pest or weed control at 250 g/ha: 250 g ai/ha
In short: as §2

[10] = tested on: giant foxtail (Setaria faberi); assay: Test G Pre-Emergence Protocol; conditions: Setaria faberi, pre-emergence, 312 h, evaluated after 13 days; for pest or weed control at 15.625 g/ha: 15.625 g ai/ha; for pest or weed control at 15.625 g/ha / pest or weed control at 250 g/ha: read-out: Foxtail, Giant damage rating (100=total damage to plant; 0=no damage to plant); for pest or weed control at 62.5 g/ha: 62.5 g ai/ha, 100=total damage to plant, 0=no damage to plant, read-out: plant damage rating, Foxtail, Giant; for pest or weed control at 250 g/ha: 250 g ai/ha
In short: as §2

[11] = tested on: barnyardgrass (Echinochloa crus-galli); assay: Test G Pre-Emergence Protocol; conditions: Echinochloa crus-galli, pre-emergence, 312 h, evaluated after 13 days; for pest or weed control at 15.625 g/ha: 15.625 g ai/ha, read-out: Barnyard grass damage rating (100=total damage to plant; 0=no damage to plant); for pest or weed control at 62.5 g/ha: 62.5 g ai/ha, 100=total damage to plant, 0=no damage to plant, read-out: plant damage rating, Barnyardgrass; for pest or weed control at 250 g/ha: 250 g ai/ha, read-out: Barnyardgrass damage rating (100=total damage to plant; 0=no damage to plant)
In short: as §2

corn (Zea mays) [12] = assay: Test G Pre-Emergence Protocol; conditions: Zea mays, pre-emergence, 312 h, evaluated after 13 days; for plant injury at 15.625 g/ha: 15.625 g ai/ha; for plant injury at 15.625 g/ha / plant injury at 250 g/ha: read-out: Corn damage rating (100=total damage to plant; 0=no damage to plant); for plant injury at 62.5 g/ha: 62.5 g ai/ha, 100=total damage to plant, 0=no damage to plant, read-out: plant damage rating, Corn; for plant injury at 250 g/ha: 250 g ai/ha
In short: as §2

| Structure (SMILES) | pest or weed control at 15.625 g/ha [1] | pest or weed control at 62.5 g/ha [1] | pest or weed control at 250 g/ha [1] | pest or weed control at 15.625 g/ha [2] | pest or weed control at 62.5 g/ha [2] | pest or weed control at 250 g/ha [2] | pest or weed control at 15.625 g/ha [3] | pest or weed control at 62.5 g/ha [3] | pest or weed control at 250 g/ha [3] | pest or weed control at 15.625 g/ha [4] | pest or weed control at 62.5 g/ha [4] | pest or weed control at 250 g/ha [4] | pest or weed control at 15.625 g/ha [5] | pest or weed control at 62.5 g/ha [5] | pest or weed control at 250 g/ha [5] | plant injury at 15.625 g/ha (corn (Zea mays) [6]) | plant injury at 62.5 g/ha (corn (Zea mays) [6]) | plant injury at 250 g/ha (corn (Zea mays) [6]) | pest or weed control at 15.625 g/ha [7] | pest or weed control at 62.5 g/ha [7] | also measured |
| --- | --- | --- | --- | --- | --- | --- | --- | --- | --- | --- | --- | --- | --- | --- | --- | --- | --- | --- | --- | --- | --- |
| Cc1c(F)ccc(NC(=O)[C@@H]2C(=O)N(C)C[C@H]2c2ccc(C(F)(F)F)cc2)c1F (racemic) [Compound 1629] | 20% | 20% | 30% | 10% | 10% | 30% | 20% | 10% | 0% | 0% | 80% | 80% | 0% | 30% | 70% | 0% | 10% | 10% | 10% | 40% | pest or weed control at 250 g/ha [7]: 50%; pest or weed control at 15.625 g/ha [8]: 0%; pest or weed control at 62.5 g/ha [8]: 0%; pest or weed control at 250 g/ha [8]: 0%; pest or weed control at 15.625 g/ha [9]: 0%; pest or weed control at 62.5 g/ha [9]: 0%; pest or weed control at 250 g/ha [9]: 0%; pest or weed control at 15.625 g/ha [10]: 30%; pest or weed control at 62.5 g/ha [10]: 50%; pest or weed control at 250 g/ha [10]: 80%; pest or weed control at 15.625 g/ha [11]: 10%; pest or weed control at 62.5 g/ha [11]: 0%; pest or weed control at 250 g/ha [11]: 70%; plant injury at 15.625 g/ha (corn (Zea mays) [12]): 0%; plant injury at 62.5 g/ha (corn (Zea mays) [12]): 10%; plant injury at 250 g/ha (corn (Zea mays) [12]): 0% |
| COc1cc([C@H]2CN(C)C(=O)[C@@H]2C(=O)Nc2ccccc2F)ccc1Cl (racemic) [Compound 1421] | 10% | 0% | 0% | 0% | 0% | 0% | 10% | 0% | 0% | 20% | 40% | 50% | 0% | 20% | 20% | 10% | 10% | 10% | 0% | 0% | pest or weed control at 250 g/ha [7]: 0%; pest or weed control at 15.625 g/ha [8]: 0%; pest or weed control at 62.5 g/ha [8]: 0%; pest or weed control at 250 g/ha [8]: 0%; pest or weed control at 15.625 g/ha [9]: 0%; pest or weed control at 62.5 g/ha [9]: 0%; pest or weed control at 250 g/ha [9]: 0%; pest or weed control at 15.625 g/ha [10]: 70%; pest or weed control at 62.5 g/ha [10]: 80%; pest or weed control at 250 g/ha [10]: 90%; pest or weed control at 15.625 g/ha [11]: 10%; pest or weed control at 62.5 g/ha [11]: 60%; pest or weed control at 250 g/ha [11]: 80%; plant injury at 15.625 g/ha (corn (Zea mays) [12]): 0%; plant injury at 62.5 g/ha (corn (Zea mays) [12]): 0%; plant injury at 250 g/ha (corn (Zea mays) [12]): 10% |
| Cc1cnc(NC(=O)[C@@H]2C(=O)N(C)C[C@H]2c2ccc(C(F)(F)F)cc2)nn1 (racemic) [Compound 1508] | 0% | 0% | 0% | 0% | 0% | 0% | 0% | 0% | 0% | 0% | 0% | 0% | 0% | 0% | 0% | 0% | 0% | 0% | 0% | 0% | pest or weed control at 250 g/ha [7]: 0%; pest or weed control at 15.625 g/ha [8]: 0%; pest or weed control at 62.5 g/ha [8]: 0%; pest or weed control at 250 g/ha [8]: 0%; pest or weed control at 15.625 g/ha [9]: 0%; pest or weed control at 62.5 g/ha [9]: 0%; pest or weed control at 250 g/ha [9]: 0%; pest or weed control at 15.625 g/ha [10]: 0%; pest or weed control at 62.5 g/ha [10]: 0%; pest or weed control at 250 g/ha [10]: 0%; pest or weed control at 15.625 g/ha [11]: 0%; pest or weed control at 62.5 g/ha [11]: 0%; pest or weed control at 250 g/ha [11]: 0%; plant injury at 15.625 g/ha (corn (Zea mays) [12]): 0%; plant injury at 62.5 g/ha (corn (Zea mays) [12]): 0%; plant injury at 250 g/ha (corn (Zea mays) [12]): 0% |
